According to patent publication US20250312499A1, “KISSPEPTIN RECEPTOR (KISS1R) TARGETED THERAPEUTICS AND USES THEREOF” (priority 2024, published 2025):
pKi: −log10 of the molar value. Numbered stars: 1 amine (or outer) side, 2 acyl side, 3 side chain; on linkers, the order of the positions; unused ones are H or OH. Square brackets hold non-standard residues; d marks the D form. Peptide text beside a SMILES is read from it. * marks the point of attachment. DOTA = O=C(O)CN1CCN(CC(=O)O)CCN(CC(=O)*)CCN(CC(=O)O)CC1; Ala(9-anthryl) = N[C@@H](Cc1c2ccccc2cc2ccccc12)C(=O)O; Gly(N-(3-F-4-Me-benzyl)) = Cc1ccc(CNCC(=O)*)cc1F; Propanoyl(3-(MeO(CH2CH2O)2)) = COCCOCCOCCC(=O)*; X16 = O=C(c1ccc(-c2ccccc2)c(OCCCN[*:1])c1)[*:2]; X4 = O=C(c1ccc(-c2ccccc2OCCCN[*:1])cc1)[*:2]; Api(1-amidino) = N=C(N)N1CCC(N)(C(=O)O)CC1; Hydrocinnamoyl(4-Me) = Cc1ccc(CCC(=O)*)cc1; Bip = N[C@@H](Cc1ccc(-c2ccccc2)cc1)C(=O)O; Hydrocinnamoyl(4-I) = O=C(CCc1ccc(I)cc1)*; X3 = CNC(=N)N1CCC(N[*:1])(C(=O)[*:2])CC1; d2Nal = N[C@H](Cc1ccc2ccccc2c1)C(=O)O; Trx = NC[C@H]1CC[C@H](C(=O)O)CC1; X1 = O=C(CN1CCC(N[*:1])CC1)[*:2]; 4Pal = N[C@@H](Cc1ccncc1)C(=O)O; d4Pal = N[C@H](Cc1ccncc1)C(=O)O; 2Thi = N[C@@H](Cc1cccs1)C(=O)O; 4Amb = NCc1ccc(C(=O)O)cc1; Api = NC1(C(=O)O)CCNCC1; PEG2 = NCCOCCOCCC(=O)O; Ahx = NCCCCCC(=O)O; azaGly = NNC(=O)O; Sar = CNCC(=O)O

The molecules below were run against human kisspeptin receptor (Homo sapiens (Human), UniProt Q969F8) (assay: Human KISS1R binding assay (membrane competition binding)). Details: 90 min at room temperature; competition with 0.2 nM [125I]-metastin (45-54); Flp-In T-Rex 293 kisspeptin membranes; metal complexes nonradioactive Ga, In, Lu; read-out: hKiSSR Binding Ki (90 min).
Sequence of human kisspeptin receptor (Q969F8 whole entry): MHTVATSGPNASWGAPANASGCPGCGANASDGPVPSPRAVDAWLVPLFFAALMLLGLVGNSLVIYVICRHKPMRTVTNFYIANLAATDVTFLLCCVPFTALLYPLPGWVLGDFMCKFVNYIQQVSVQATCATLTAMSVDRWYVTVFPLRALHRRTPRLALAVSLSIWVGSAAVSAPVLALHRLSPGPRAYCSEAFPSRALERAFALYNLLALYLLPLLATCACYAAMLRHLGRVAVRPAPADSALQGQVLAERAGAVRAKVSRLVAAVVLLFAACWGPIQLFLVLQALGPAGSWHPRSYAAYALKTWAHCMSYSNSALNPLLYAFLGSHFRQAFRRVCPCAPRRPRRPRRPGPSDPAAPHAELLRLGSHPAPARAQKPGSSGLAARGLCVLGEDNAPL
How it was run: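 Radioligand competition: 0.2 nM [125I]-metastin (45-54) displaced by test ligand (usually 0–10,000 nM) over 90 min at room temperature, pH 7.4 buffer with 0.1% BSA. Receptor source is crude membrane (5–10 μg) from tetracycline-induced Flp-In T-Rex 293 cells. Bound label filtered and counted; Ki from non-linear regression.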

SMILES	pKi
CNC(=N)N1CCC(NC(=O)[C@H](CC(C)C)NC(=O)NNC(=O)[C@H](Cc2ccccc2)NC(=O)CCCCCNC(=O)CN2CCN(CC(=O)O)CCN(CC(=O)O)CCN(CC(=O)O)CC2)(C(=O)N[C@@H](Cc2c[nH]c3ccccc23)C(N)=O)CC1 [Compound 189] ({DOTA-Ahx}-F[azaGly]L[X3]W-NH2)	< 7.00
Cc1ccc(CNCC(=O)N2CCC(NC(=O)[C@H](CC(C)C)NC(=O)NNC(=O)[C@H](Cc3ccccc3)NC(=O)[C@H]3CC[C@H](CNC(=O)CN4CCN(CC(=O)O)CCN(CC(=O)O)CCN(CC(=O)O)CC4)CC3)(C(=O)N[C@@H](Cc3c[nH]c4ccccc34)C(N)=O)CC2)cc1F [Compound 192] ({DOTA-Trx}-F[azaGly]L[Api](Gly(N-(3-F-4-Me-benzyl)))W-NH2)	> 8.00
Cc1ccc(CNCC(=O)N2CCC(NC(=O)[C@H](CC(C)C)NC(=O)NNC(=O)[C@H](Cc3ccccc3)NC(=O)[C@@H](NC(=O)[C@H](CC(N)=O)NC(=O)[C@@H](Cc3ccncc3)NC(=O)[C@@H](Cc3ccc(O)cc3)NC(=O)CNC(=O)CN3CCN(CC(=O)O)CCN(CC(=O)O)CCN(CC(=O)O)CC3)[C@@H](C)O)(C(=O)N[C@@H](Cc3ccc(O)cc3)C(N)=O)CC2)cc1F [Compound 193] ({DOTA}-G[dY][d4Pal]NTF[azaGly]L[Api](Gly(N-(3-F-4-Me-benzyl)))Y-NH2)	> 8.00
CC(C)C[C@H](NC(=O)[C@H](Cc1ccccc1)NC(=O)[C@H](CC(N)=O)NC(=O)[C@H](CCCNC(=N)N)NC(=O)[C@H](CC(N)=O)NC(=O)[C@@H](NC(=O)CCCCCNC(=O)CN1CCN(CC(=O)O)CCN(CC(=O)O)CCN(CC(=O)O)CC1)[C@@H](C)O)C(=O)NC1(C(=O)N[C@@H](Cc2ccccc2)C(N)=O)CCN(C(=N)N)CC1 [Compound 199] ({DOTA-Ahx}-TNRNFL[Api(1-amidino)]F-NH2)	< 7.00
CNCC(=O)N1CCC(NC(=O)[C@H](CC(C)C)NC(=O)NNC(=O)[C@H](Cc2ccccc2)NC(=O)[C@@H](NC(=O)[C@H](CC(N)=O)NC(=O)[C@H](Cc2c3ccccc3cc3ccccc23)NC(=O)[C@@H](Cc2ccc(O)cc2)NC(=O)CN2CCN(CC(=O)O)CCN(CC(=O)O)CCN(CC(=O)O)CC2)[C@@H](C)O)(C(=O)N[C@@H](Cc2ccncc2)C(N)=O)CC1 [Compound 202] ({DOTA}-[dY][Ala(9-anthryl)]NTF[azaGly]L[Api](Sar)[4Pal]-NH2)	7.00 to 8.00
CSCC[C@H](NC(=O)c1ccc(CNC(=O)CN2CCN(CC(=O)O)CCN(CC(=O)O)CCN(CC(=O)O)CC2)cc1)C(=O)N[C@@H](Cc1ccccc1)C(=O)N[C@@H](CCCCNC(=O)CCCCC(=O)N[C@@H](Cc1ccccc1)C(=O)NNC(=O)N[C@@H](CC(C)C)C(=O)NC1(C(=O)N[C@@H](Cc2c[nH]c3ccccc23)C(N)=O)CCN(C(=O)CNCc2ccc(C)c(F)c2)CC1)C(=O)O [Compound 203]	> 8.00
Cc1ccc(CNCC(=O)N2CCC(NC(=O)[C@H](CC(C)C)n3cc([C@H](Cc4ccccc4)NC(=O)[C@@H](N)CCCCNC(=O)CN4CCN(CC(=O)O)CCN(CC(=O)O)CCN(CC(=O)O)CC4)nn3)(C(=O)N[C@@H](Cc3c[nH]c4ccccc34)C(N)=O)CC2)cc1F [Compound 204]	< 7.00
Cc1ccc(CNCC(=O)N2CCC(NC(=O)[C@H](CC(C)C)NC(=O)NNC(=O)[C@H](Cc3ccccc3)NC(=O)[C@@H](NC(=O)[C@H](CC(N)=O)NC(=O)c3ccc(CNC(=O)CN4CCN(CC(=O)O)CCN(CC(=O)O)CCN(CC(=O)O)CC4)cc3)[C@@H](C)O)(C(=O)N[C@@H](Cc3ccc(O)cc3)C(N)=O)CC2)cc1F [Compound 205] ({DOTA-4Amb}-NTF[azaGly]L[Api](Gly(N-(3-F-4-Me-benzyl)))Y-NH2)	> 8.00
Cc1ccc(CNCC(=O)N2CCC(NC(=O)[C@H](CC(C)C)NC(=O)NNC(=O)[C@H](Cc3ccccc3)NC(=O)[C@@H](NC(=O)[C@H](CC(N)=O)NC(=O)[C@@H](CCC(=O)O)NC(=O)c3ccc(CNC(=O)CN4CCN(CC(=O)O)CCN(CC(=O)O)CCN(CC(=O)O)CC4)cc3)[C@@H](C)O)(C(=O)N[C@@H](Cc3ccc(O)cc3)C(N)=O)CC2)cc1F [Compound 206] ({DOTA-4Amb}-[dE]NTF[azaGly]L[Api](Gly(N-(3-F-4-Me-benzyl)))Y-NH2)	> 8.00
Cc1ccc(CNCC(=O)N2CCC(NC(=O)c3ccc(-c4ccccc4)c(OCCNC(=O)[C@H](Cc4ccccc4)NC(=O)CN4CCC(NC(=O)CN5CCN(CC(=O)O)CCN(CC(=O)O)CCN(CC(=O)O)CC5)CC4)c3)(C(=O)N[C@@H](Cc3c[nH]c4ccccc34)C(N)=O)CC2)cc1F [Compound 214]	> 8.00
Cc1ccc(CNCC(=O)N2CCC(NC(=O)c3cc(OCCNC(=O)[C@H](Cc4ccccc4)NC(=O)CN4CCC(NC(=O)CN5CCN(CC(=O)O)CCN(CC(=O)O)CCN(CC(=O)O)CC5)CC4)cc(-c4ccccc4)c3)(C(=O)N[C@@H](Cc3c[nH]c4ccccc34)C(N)=O)CC2)cc1F [Compound 215]	< 7.00
Cc1ccc(CNCC(=O)N2CCC(NC(=O)[C@H](CC(C)C)NC(=O)NNC(=O)c3ccc(-c4ccccc4)c(OCCCNC(=O)CN4CCC(NC(=O)CN5CCN(CC(=O)O)CCN(CC(=O)O)CCN(CC(=O)O)CC5)CC4)c3)(C(=O)N[C@@H](Cc3c[nH]c4ccccc34)C(N)=O)CC2)cc1F [Compound 216] ({DOTA}-[X1][X16][azaGly]L[Api](Gly(N-(3-F-4-Me-benzyl)))W-NH2)	> 8.00
Cc1ccc(CNCC(=O)N2CCC(NC(=O)[C@H](CC(C)C)NC(=O)NNC(=O)c3ccc(-c4ccccc4OCCCNC(=O)CN4CCC(NC(=O)CN5CCN(CC(=O)O)CCN(CC(=O)O)CCN(CC(=O)O)CC5)CC4)cc3)(C(=O)N[C@@H](Cc3c[nH]c4ccccc34)C(N)=O)CC2)cc1F [Compound 217] ({DOTA}-[X1][X4][azaGly]L[Api](Gly(N-(3-F-4-Me-benzyl)))W-NH2)	> 8.00
Cc1ccc(CNCC(=O)N2CCC(NC(=O)[C@H](CC(C)C)NC(=O)NNC(=O)[C@H](Cc3cccs3)NC(=O)[C@@H](NC(=O)[C@H](CC(N)=O)NC(=O)[C@H](CCC(=O)O)NC(=O)CN3CCC(NC(=O)CN4CCN(CC(=O)O)CCN(CC(=O)O)CCN(CC(=O)O)CC4)CC3)[C@@H](C)O)(C(=O)N[C@@H](Cc3c[nH]c4ccccc34)C(N)=O)CC2)cc1F [Compound 218] ({DOTA}-[X1]ENT[2Thi][azaGly]L[Api](Gly(N-(3-F-4-Me-benzyl)))W-NH2)	> 8.00

The remaining lines, values ahead:

pKi	SMILES
> 8.00	Cc1ccc(CCC(=O)NCCOCCOCCC(=O)N[C@H](Cc2ccc(O)cc2)C(=O)N[C@@H](CCCCNC(=O)CN2CCN(CC(=O)O)CCN(CC(=O)O)CCN(CC(=O)O)CC2)C(=O)N[C@@H](CC(N)=O)C(=O)N[C@H](C(=O)N[C@@H](Cc2ccccc2)C(=O)NNC(=O)N[C@@H](CC(C)C)C(=O)NC2(C(=O)N[C@@H](Cc3c[nH]c4ccccc34)C(N)=O)CCN(C(=N)N)CC2)[C@@H](C)O)cc1 [Compound 195] ({Hydrocinnamoyl(4-Me)-PEG2}-[dY]K(DOTA)NTF[azaGly]L[Api(1-amidino)]W-NH2)
> 8.00	CC(C)C[C@H](NC(=O)NNC(=O)[C@H](Cc1ccccc1)NC(=O)[C@@H](NC(=O)[C@H](CC(N)=O)NC(=O)[C@H](CCCCNC(=O)CN1CCN(CC(=O)O)CCN(CC(=O)O)CCN(CC(=O)O)CC1)NC(=O)[C@@H](Cc1ccc(O)cc1)NC(=O)CCOCCOCCNC(=O)CCc1ccc(I)cc1)[C@@H](C)O)C(=O)NC1(C(=O)N[C@@H](Cc2c[nH]c3ccccc23)C(N)=O)CCN(C(=N)N)CC1 [Compound 196] ({Hydrocinnamoyl(4-I)-PEG2}-[dY]K(DOTA)NTF[azaGly]L[Api(1-amidino)]W-NH2)
> 8.00	COCCOCCOCCC(=O)N[C@H](Cc1ccc(O)cc1)C(=O)N[C@@H](CCCCNC(=O)CN1CCN(CC(=O)O)CCN(CC(=O)O)CCN(CC(=O)O)CC1)C(=O)N[C@@H](CC(N)=O)C(=O)N[C@H](C(=O)N[C@@H](Cc1ccccc1)C(=O)NNC(=O)N[C@@H](CC(C)C)C(=O)NC1(C(=O)N[C@@H](Cc2c[nH]c3ccccc23)C(N)=O)CCN(C(=N)N)CC1)[C@@H](C)O [Compound 197] ({Propanoyl(3-(MeO(CH2CH2O)2))}-[dY]K(DOTA)NTF[azaGly]L[Api(1-amidino)]W-NH2)
> 8.00	CC(C)C[C@H](NC(=O)NNC(=O)[C@H](Cc1ccccc1)NC(=O)[C@@H](NC(=O)[C@H](CC(N)=O)NC(=O)[C@H](Cc1ccc(-c2ccccc2)cc1)NC(=O)[C@@H](Cc1ccc(O)cc1)NC(=O)CCCCCNC(=O)CN1CCN(CC(=O)O)CCN(CC(=O)O)CCN(CC(=O)O)CC1)[C@@H](C)O)C(=O)NC1(C(=O)N[C@@H](Cc2c[nH]c3ccccc23)C(N)=O)CCN(C(=N)N)CC1 [Compound 198] ({DOTA-Ahx}-[dY][Bip]NTF[azaGly]L[Api(1-amidino)]W-NH2)
> 8.00	CNCC(=O)N1CCC(NC(=O)[C@H](CC(C)C)NC(=O)NNC(=O)[C@H](Cc2ccccc2)NC(=O)[C@@H](NC(=O)[C@H](CC(N)=O)NC(=O)[C@@H](Cc2ccc3ccccc3c2)NC(=O)[C@@H](Cc2ccc(O)cc2)NC(=O)CCCCCNC(=O)CN2CCN(CC(=O)O)CCN(CC(=O)O)CCN(CC(=O)O)CC2)[C@@H](C)O)(C(=O)N[C@@H](Cc2c[nH]c3ccccc23)C(N)=O)CC1 [Compound 201] ({DOTA-Ahx}-[dY][d2Nal]NTF[azaGly]L[Api](Sar)W-NH2)
> 8.00	Cc1ccc(CNCC(=O)N2CCC(NC(=O)[C@H](CC(C)C)NC(=O)NNC(=O)[C@H](Cc3ccccc3)NC(=O)[C@@H](NC(=O)[C@H](CC(N)=O)NC(=O)c3ccc(CNC(=O)[C@H](Cc4ccc(O)cc4)NC(=O)CNC(=O)CN4CCN(CC(=O)O)CCN(CC(=O)O)CCN(CC(=O)O)CC4)cc3)[C@@H](C)O)(C(=O)N[C@@H](Cc3c[nH]c4ccccc34)C(N)=O)CC2)cc1F [Compound 213] ({DOTA}-GY[4Amb]NTF[azaGly]L[Api](Gly(N-(3-F-4-Me-benzyl)))W-NH2)
> 8.00	CC(C)C[C@H](NC(=O)NNC(=O)[C@H](Cc1ccccc1)NC(=O)[C@@H](NC(=O)[C@H](CC(N)=O)NC(=O)[C@H](Cc1c2ccccc2cc2ccccc12)NC(=O)[C@@H](Cc1ccc(O)cc1)NC(=O)CN1CCN(CC(=O)O)CCN(CC(=O)O)CCN(CC(=O)O)CC1)[C@@H](C)O)C(=O)NC1(C(=O)N[C@@H](Cc2ccncc2)C(N)=O)CCN(C(=N)N)CC1 [Compound 221] ({DOTA}-[dY][Ala(9-anthryl)]NTF[azaGly]L[Api(1-amidino)][4Pal]-NH2)
